Reference: publication PMC7571124 (Molecules, 2020)
Read-outs that look alike come from different tables or passages of the source. Residues, ends and D or L forms follow the SMILES beside them.

How the values were obtained:
[1] = target: neuraminidase of A/CHK/MX/1994 H5N2 (Influenza A virus, UniProt Q0A2F2); format: biochemical, Influenza A virus A/Chicken/Mexico/31381-7/1994 (H5N2)
[2] = test system: avian influenza A A/CHK/MX/1994 H5N2 virus; test: microbe, parasite or virus in culture; format: cell-based; conditions: for IC50: read-out: IC50 of viral replication inhibition
in vitro = conditions: dog
[3] = target: T1, neuraminidase of A/PR/8/34 H1N1 (Influenza A virus, UniProt P03468); test: biochemical; format: biochemical, Influenza A virus A/Puerto Rico/8/34 (H1N1)
T1 construct: Samples of cell supernatant infected with whole virus were used as source of enzymes; host or cells: MDCK cells infected with the virus; clarified culture supernatant

MDCK cells = conditions: dog

Compound	inhibition mechanism [1]	inhibition of viral replication (lytic plaques) ([2]; at 1 mM)	IC50 [3]	Ki [3]	inhibition mechanism [3]	also measured
CC(=O)N[C@H]1[C@H]([C@H](O)[C@H](O)CO)OC(C(=O)O)=C[C@@H]1N=C(N)N [Zanamivir, zanamivir]	competitive					lytic plaque formation [2]: not detected; IC50 [2]: 0.741 µM
3-(propylaminosulfonyl)-4-chlorobenzoic acid [STL]		completely inhibited				IC50 [1]: 24.8 ± 1.3 mM; inhibition of viral replication (lytic plaques) ([2]; at 100 μM): losing this effect
CSCCC(NC(=O)C(Cc1ccccc1)NC(C)=O)C(=O)O (stereo not drawn) [AAMOL, N-acetylphenylalanylmethionine] (Ac-Phe-Met-OH; configuration not given here)	competitive		57 ± 1.1 mM	15.3 mM	competitive	inhibition of viral replication (lytic plaques) ([2]; at 1 μM): no inhibition effect was observed; CC50 (in vitro): 16 ± 1.5 µM
Cc1ccc(C)c(NC(=O)CC(C(=O)O)N2CCNCC2)c1 (stereo not shown) [FMOL, propanoic 3-[(2,5-dimethylphenyl)carbamoyl]-2-(piperazin-1-yl) acid]		affected the size and number of plaques				inhibition of viral replication (lytic plaques) ([2]; at 100 μM): affected the size and number of plaques
CC(=O)N[C@H]1[C@H]([C@H](O)[C@H](O)CO)O[C@@](Oc2ccc3c(C)cc(=O)oc3c2)(C(=O)O)C[C@@H]1O [MUNANA, 2′-O-(4-methylumbelliferyl)-α-dN-acetylneuraminic acid]						Km [1]: 106 µM; Vmax [1]: 5.2 µmol/min; Km [3]: 142 µM; Vmax [3]: 2.77 µmol/min
CCCN(CCC)S(=O)(=O)c1ccc(C(=O)O)cc1 [ORP, 4-(dipropylsulfamoyl) benzoic acid]	competitive	only lowered the number of plaques	23 ± 1.2 mM	10.5 mM	competitive	IC50 ([2]; Influenza A virus, H5N2, MDCK, in Canis lupus familiaris): 157 µM
O=C1O[C@H]([C@@H](O)CO)C(O)=C1O [CIV, ascorbic acid]	noncompetitive		32 ± 1.5 mM	26.4 mM	noncompetitive	CC50 (MDCK cells): 550 ± 1100 nM; inhibition of viral replication (lytic plaques) ([2]; at 1 μM): no inhibition effect was observed; CC50 (in vitro): 0.3 µM
